Assay results from US11622964B2, “Method for destroying cellular mechanical homeostasis and promoting regeneration and repair of tissues and organs, and use thereof” (INSTITUTE OF ZOOLOGY, CHINESE ACADEMY OF SCIENCES, priority 2018, dated 2023).

Columns and labels:
[1] = system: mouse embryonic fibroblasts (MEFs); test: TGF-β1-induced transformation of mouse embryonic fibroblasts into myofibroblasts; assay type: cell-based; settings: S-Bleb-OB 20 μM; for TGF-β1-induced myofibroblast activation: scheme as Example 9-1; for stretched state / fibrous morphology of MEFs: compared with DMSO
Excerpt: In this example, cell models for in vitro fibrosis are respectively built to activate mouse hepatic stellate Cells (mHSCs, FIG. 13(B)), mouse embryonic fibroblasts (MEFs FIG. 13(C)), mouse adult liver, lung, and heart-derived primary mesenchymal cells (priMCs, FIG. 13(D)), and human hepatic stellate cells (hLX-2, FIG. 13(E)) into myofibroblasts through the induction of TGF-β1. The specific experimental procedure is as shown in FIG. 9A: a medium containing 10% serum is used for the initial cell culture; after 24 hours the medium is replaced with low serum medium (or pre-starvation treatment for 16 hours) while adding 3 ng/ml TGF-β1 with DMSO or Bleb (20 μM); after 7 days the expression of myofibroblast activation marker protein (Acta2), collagen (Col1a1, Col1a2, Col3a1, and Col1a2), and matrix metalloproteinases and inhibitors (collagenases: MmP8, and MmP13; gelatinases: MmP2, and MmP9; a metalloproteinase inhibitor: Timp1/2/3) are identified.

[2] = system: adult hepatocytes; test: In vitro amplification of adult hepatocytes; assay type: cell-based, human; settings: for number of cells: after 6 days of culture
Method: Resuscitation and Culture of Adult Hepatocytes: adult hepatocytes ([…] […] human, Bioreclamation IVT) are taken out from the liquid nitrogen tank, quickly placing in a 37° C. water bath, after melting the cells are added to 5 ml of 37° C. pre-warmed hepatocyte inoculation medium (In VitroGRO CP Medium), then inoculating at 9×10^4/well in 24-well plate after counting, 2-4 hours after hepatocyte adherence, the hepatocyte inoculation medium is sucked and discarded, then respectively adding control medium for hepatocyte culture, 10 μm small molecule medium, and 20 μm small molecule medium; changing the medium every 2 days. The number of cells is estimated from the photograph on day 2. After 4 days, the 20 μm small molecule medium group is changed to culture the cells in 10 μm small molecule medium. After co-culturing for 6 days the cells are counted. A portion of the cells are taken for RNA extraction so as to detect the expression of human hepatocyte-specific genes. Passage of Adult Hepatocytes: 4.7×10^4 hepatocytes cultured in the above control group, and 8×10^4 hepatocytes cultured in 10 μm small molecule medium are respectively re-inoculated into 24-well plate coated with rat tail collagen, changing the medium every two days and culturing for 6 days, photographs are taken to record the growth of the cells. Induction of CYP1A2 in Adult Hepatocytes Amplified by Small Molecule Medium: 3×10^5 hepatocytes are inoculated in 24-well plate coated with rat tail collagen, after culturing in 10 μm small molecule medium for 24 hours, the medium is replaced with 10 μm small molecule medium containing 50 μm omeprazole, and in the control group the cells are cultured in 10 μm small molecule medium containing DMSO; 48 hours later, the cells are collected to detect the expression of the CYP1A2 gene.

(−)-blebbistatin o-benzoate [S-Bleb-OB]
TGF-β1-induced myofibroblast activation [1]: have an inhibitory effect

COc1ccc2[nH]c([S+]([O-])Cc3ncc(C)c(OC)c3C)nc2c1 (stereo not drawn) [omeprazole]
expression of CYP1A2 gene after induction ([2]; 50 μm omeprazole, 48 hours, subcultured adult hepatocytes in 10 μm small molecule medium): increase

(−)-blebbistatin
amplification effect on adult hepatocytes (cell number day 6 / day 2) [2]: significant amplification effect
expression of human hepatocyte specific genes ALBUMIN, AFP, CYP1A2, CYP3A4 [2]: still express
subculture of human hepatocytes [2]: can subculture human hepatocytes
number of cells ([2]; 10 μm group): 6.47×10^4 (SD=1.24)
number of cells ([2]; # group (20 μm for 4 days, then 10 μm for 2 days)): 9.47×10^4 (SD=0.98)
expression of proliferating cell nuclear antigen (PCNA) gene ([2]; vs control group): significantly higher

Cc1ccc2c(c1)C(=O)[C@@]1(O)CCN(c3ccccc3)C1=N2 [R-Bleb, (R)-(+)-blebbistatin]
stretched state / fibrous morphology of MEFs [1]: does not affect the fibrous morphology
TGF-β1-induced myofibroblast activation [1]: no inhibitory effect

Cc1ccc2c(c1)C(=O)[C@]1(OC(=O)c3ccccc3)CCN(c3ccccc3)C1=N2 [S-Bleb-OB, (−)-blebbistatin o-benzoate]
stretched state / fibrous morphology of MEFs [1]: may destroy the stretched state
TGF-β1-induced myofibroblast activation [1]: capable of inhibiting
